Data as given in patent publication US20240254087A1, “SELECTIVE, PARTIAL, AND ARRESTIN-BIASED 5-HT2A AGONISTS WITH UTILITY IN VARIOUS DISORDERS” (Saint Joseph's University, priority 2021, published 2024).
Entries after “also recorded” stand apart in the source; their conditions may differ.

How the values were obtained:
[1] = biological target: T1, 5-HT2A (Homo sapiens, UniProt P28223); test: cell-based; set-up: expressed in transfected cells; host or cells: HEK293T, transient; conditions: read-out: 5-HT2A Gq Emax (% 5-HT), BRET, mean ± SEM
T1 sequence (P28223 whole entry): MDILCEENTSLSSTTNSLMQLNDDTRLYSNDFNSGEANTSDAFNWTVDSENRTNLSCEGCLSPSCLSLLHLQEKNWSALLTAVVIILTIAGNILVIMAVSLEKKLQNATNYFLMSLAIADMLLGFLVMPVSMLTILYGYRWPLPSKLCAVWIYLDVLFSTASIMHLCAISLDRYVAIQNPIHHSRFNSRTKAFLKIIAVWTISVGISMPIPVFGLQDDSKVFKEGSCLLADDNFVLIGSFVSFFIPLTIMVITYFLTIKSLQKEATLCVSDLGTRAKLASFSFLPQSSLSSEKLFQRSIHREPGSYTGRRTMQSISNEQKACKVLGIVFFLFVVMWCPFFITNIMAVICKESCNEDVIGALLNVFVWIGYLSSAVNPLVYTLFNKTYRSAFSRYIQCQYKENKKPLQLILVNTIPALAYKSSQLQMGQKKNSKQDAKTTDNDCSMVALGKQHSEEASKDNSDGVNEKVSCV

[2] = biological target: T1, 5-HT2A; test: Antagonism of 5-HT-induced Gq signaling (BRET); format: cell-based; set-up: expressed in transfected cells; host or cells: HEK293T, transient
[3] = biological target: T1, 5-HT2A; test: NanoLuc internalization assay; format: cell-based; conditions: 60 min
[4] = biological target: T2, h5-HT2A (Homo sapiens, UniProt P28223); test: Antagonism of 5-HT induced Ca2+ flux activation; format: cell-based; conditions: FIG. 1D
T2 construct: expressed in transfected cells
T2 sequence (P28223 whole entry): as above
Experimental: (A). DOI, a hallucinogen and 5-HT2A agonist, was administered IP 10 min after SC administration of vehicle or test drug. A and then HTR activity was assessed for 30 minutes. *p<0.001, significant difference vs. vehicle (B). Vehicle or the NMDA receptor antagonist PCP (5 mg/kg) was injected IP 10 min after SC administration of vehicle or 25N-NB1-Nap (16), and then the mice were placed in the test chambers 10 min later for a 60-min assessment of locomotor activity. (C). […] Mice were treated with vehicle or M100907 (0.03 mg/kg SC) 10 min prior to vehicle or PCP (5 mg/kg IP): animals were placed in the test chambers 10 min after treatment with PCP. Animals were tested for 60 min. *p<0.01 vs. vehicle: ^#p<0.01 vs. PCP alone.
Calcium flux was measured using stable-expressing 5-HT2 Flp-In 293 T-Rex Tetracycline inducible system described previously (Investigation of the Structure-Activity Relationships of Psilocy bin Analogues, ACS Pharmacol. Transl. Sci. 2020, Publication Date: Dec. 14, 2020, https://doi.org/10.1021/acsptsci.0c00176). […] After dye load, cells were allowed to equilibrate to room temperature for 15 minutes, and then placed in a FLIPR^TETRA fluorescence imaging plate reader (Molecular Devices). Fluorescence for the FLIPR^TETRA were programmed to read baseline fluorescence for 10 s (1 read/s), and afterward 5 μl of drug per well was added and read for a total of 5-10 min (1 read/s). […]

[5] = system: male C57BL/6J mice; test: Blockade of agonist-induced HTR by pretreatment; format: in vivo, mouse; conditions: pretreatment of mice with test compound
Experimental: Vehicle or the NMDA receptor antagonist PCP (5 mg/kg) was injected IP 10 min after SC administration of vehicle or 25N-NB1-Nap (16), and then the mice were placed in the test chambers 10 min later for a 60-min assessment of locomotor activity. (C). […] Mice were treated with vehicle or M100907 (0.03 mg/kg SC) 10 min prior to vehicle or PCP (5 mg/kg IP): animals were placed in the test chambers 10 min after treatment with PCP.
Male C57BL/6J mice (6-8 weeks old) from Jackson Labs (Bar Harbor, ME, USA) were used for the behavioral experiments. The mice were housed on a reversed light-dark cycle (lights on at 1900 h, off at 0700 h) in an AAAC-approved vivarium at the University of California San Diego. Mice were housed up to four per cage in a climate-controlled room and with food and water provided ad libitum except during behavioral testing. Testing was performed between 1000 and 1800 h (during the dark phase of the light-dark cycle). The studies were conducted in accordance with National Institutes Health (NIH) guidelines and were approved by the University of California San Diego Institutional Animal Care and Use Committee.
The mice were allowed to recover from the magnet implantation surgeries for at least 1 week prior to behavioral testing. HTR experiments were conducted in a well-lit room, and the mice were allowed to habituate to the room for at least 1 h prior to testing. Head twitches was assessed in a 12-cm diameter glass cylinder surrounded by a magnetometer coil. Coil voltage was low-pass filtered (2 kHz), amplified, and digitized (20-kHz sampling rate) using a Powerlab/8SP with LabChart v 7.3.2 (ADInstruments, Colorado Springs, CO, USA). […] HTR counts were analyzed using one-way ANOVAs. Dunnett's test was used for post hoc comparisons.

[6] = biological target: T1, 5-HT2A; test: [3H]-ketanserin displacement, 5-HT2A membranes; format: binding; set-up: ES-313-M400UA (membranes); host or cells: CHO-K1

Row | Compound | Emax [1] | Antagonism of 5-HT-induced 5-HT2A-mediated Gq signaling [2] | Internalization of 5-HT2A receptors [3] | Antagonism of 5-HT induced h5-HT2A Ca2+ flux activation [4] | Blockade of the HTR induced by DOI [5] | Ki [6]
1 | COc1cc([N+](=O)[O-])c(OC)cc1CCNCc1cccc(C)c1 [25N-NB-3-Me (22), [2-(2,5-dimethoxy-4-nitrophenyl)ethyl][(3-methylphenyl)methyl]amine] | 41.7 ± 3.4% | – | – | – | – | –
2 | COc1cc([N+](=O)[O-])c(OC)cc1CCN [2C-N (1), 2-(2,5-dimethoxy-4-nitrophenyl)ethan-1-amine, reference compound] | 87.9 ± 1.4% | – | – | – | – | –
3 | COc1cc([N+](=O)[O-])c(OC)cc1CCNCc1ccccc1-c1ccccc1 [25N-NBPh (17), ({[1,1′-biphenyl]-2-yl}methyl)[2-(2,5-dimethoxy-4-nitrophenyl)ethyl]amine] | 23.2 ± 1.5% | antagonized | potent and strong internalization | Antagonism | blocked the HTR | –
4 | COc1cc([N+](=O)[O-])c(OC)cc1CCNCc1cccc(C)c1O [25N-NB-2-OH-3-Me (18), 2-({[2-(2,5-dimethoxy-4-nitrophenyl)ethyl]amino}methyl)-6-methylphenol] | 50.8 ± 1.6% | – | – | – | blocked the HTR; also recorded: can block the HTR | –
5 | COc1cc([N+](=O)[O-])c(OC)cc1CCNCc1ccccc1 [25N-NB (2), Benzyl[2-(2,5-dimethoxy-4-nitrophenyl)ethyl]amine] | 79.5 ± 1.5% | – | – | – | – | –
6 | COc1cc([N+](=O)[O-])c(OC)cc1CCNCc1cccc(F)c1OC [25N-NB-2-MeO-3-F (19), [2-(2,5-dimethoxy-4-nitrophenyl)ethyl][(3-fluoro-2-methoxyphenyl)methyl]amine] | 71.1 ± 1.9% | – | – | – | – | –
7 | COc1cc([N+](=O)[O-])c(OC)cc1CCNCc1cccc2ccccc12 [25N-N-1-Nap (16), [2-(2,5-dimethoxy-4-nitrophenyl)ethyl][(naphthalen-1-yl)methyl]amine] | 23.7 ± 1.4% | antagonized | potent and strong internalization | Antagonism | blocked the HTR | 4.27 nM
8 | COc1cc([N+](=O)[O-])c(OC)cc1CCNCc1ccccc1OC [25N-NBOMe (4), [2-(2,5-dimethoxy-4-nitrophenyl)ethyl] [(2-methoxyphenyl)methyl]amine] | 98% | – | strong internalization | – | – | 1.41 nM
9 | COc1cc([N+](=O)[O-])c(OC)cc1CCNCc1cccc(O)c1 [25N-NB-3-OH (21), 3-({[2-(2,5-dimethoxy-4-nitrophenyl)ethyl]amino}methyl)phenol] | 49.8 ± 4.3% | – | – | – | – | –
